Some results are limits rather than exact numbers.

The first assay relates to SJSA-1. Briefly: Cell proliferation (Alamar Blue) assay, SJSA-1 osteosarcoma, with/without ferrostatin. Type of assay: cell-based, human. The conditions noted are these: Homo sapiens, SJSA-1, Cell Line SJSA-1; read-out: IC50. As to the method: (§1) Cell viability assay was performed to assess the potency of the compounds in human cancer cell lines 786-O (renal cell carcinoma) and SJSA-1 (osteosarcoma). Additional cell lines, such as those described above in Example 4 as well as various others, e.g., pancreatic cancer cell lines (Panc 02.13, BxPC-3, Panc 12, Panc 02.03, Panc 6.03, PSN-1, HPAC, and Capan-1) and prostate cancer cell lines (PC-3, DU145, 22Rv1, NCI-H660, BPH1, LNCaP, BM-1604, and MDA PCa 2b), were tested for select compounds as shown in Table 25.
(§2) Cells (SJSA-1, 786-O and A431) were seeded (5000 cells/100 μL/well) in 96-well tissue culture plate and incubated at 37° C./5% CO2 for 16-24 hours. The cells were then treated with compounds (25 μL of 5×). The compound concentrations were 10-0.0005 μM prepared in 3-fold serial dilutions with final DMSO concentration of 1%. The plates were then incubated for 24 h at 37° C./5% CO2 in a moist environment. Then Alamar Blue™ reagent (final concentration 1×-12.5 μL) was added to each well and incubated for 1.5 hours at 37° C./5% CO2. The plates were read on fluorescence reader at 540 nm excitation and 590 nm emission wavelengths. The IC50 values were subsequently determined using a sigmoidal dose-response curve (variable slope) in GraphPad Prism® 5 software.
(§3) Studies have shown that lipophilic antioxidants, such as ferrostatin, can rescue cells from GPX4 inhibition-induced ferroptosis. For instance, mesenchymal state GPX4-knockout cells can survive in the presence of ferrostatin, however, when the supply of ferrostatin is terminated, these cells undergo ferroptosis (see, e.g., Viswanathan et al., Nature 547:453-7, 2017). […] Accordingly, the ability of a molecule to induce ferroptotic cancer cell death, and that such ability is admonished by the addition of ferrostatin, is clear indication that the molecule is an GPX4 inhibitor.
In general terms: Resazurin is reduced to fluorescent resorufin, in cell work by metabolically active cells.
Turning to `C[C@H]1Cc2c([nH]c3ccccc23)[C@@H](c2ccc(C(=O)Nc3ccccn3)cc2)N1C(=O)CCl` (single isomer, unassigned) [Compound 160], the 50% inhibitory concentration (IC50) amounted to 1300 nM.

With `CC#CC(=O)N1[C@@H](c2ccc(N3CCOCC3)cc2)c2[nH]c3ccccc3c2C[C@@H]1C` [Compound 224], the half-inhibitory concentration (IC50) is above 3000 nM.

In the case of `C[C@H]1Cc2c([nH]c3ccccc23)[C@H](c2ccc(N3CCN(C)CC3)cc2)N1C(=O)CCl` [Example 104], the IC50 worked out at 147 nM.

Turning to `C[C@H]1Cc2c([nH]c3ccccc23)C(c2ccc(N3CCOCC3)nc2)N1C(=O)CCl` (some centres unmarked) [Example 124], the IC50 is 201 nM.

The same assay, now with this note: Homo sapiens; Cell Line SJSA-1; read-out: IC50.
`C[C@H]1Cc2c([nH]c3ccccc23)[C@H](c2ccc(N3CCOCC3)cc2)N1C(=O)CF` [Compound 227]: the IC50 is above 3000 nM.

A further assay concerns 786-O. Briefly: Cell proliferation (Alamar Blue) assay, 786-O renal cell carcinoma, with/without ferrostatin. Particulars: Homo sapiens, 786-0, Cell Line 786-O; read-out: IC50. Type of assay: cell-based. As to the method: as §1, §2, §3
In the case of `C[C@H]1Cc2c([nH]c3ccccc23)[C@@H](c2ccc(C(=O)Nc3ccccn3)cc2)N1C(=O)CCl` (single isomer, unassigned) [Compound 160], the IC50 came out at 1000 nM.

Regarding `C[C@H]1Cc2c([nH]c3ccccc23)C(c2ccc(S(N)(=O)=O)cc2)N1C(=O)CCl` (some centres unmarked) [Compound 123], the IC50 worked out at 2400 nM.

`C[C@H]1Cc2c([nH]c3ccccc23)C(c2ccc(N3CCOCC3)nc2)N1C(=O)CCl` (some centres unmarked) [Compound 124]: the concentration for half-maximal inhibition (IC50) came to 245 nM.

Consider `CC1CN(c2ccc([C@@H]3c4[nH]c5ccccc5c4C[C@H](C)N3C(=O)CCl)cc2)CCO1` (some centres unmarked) [Compound 127], for which the 50% inhibitory concentration (IC50) is above 10000 nM.

Take `C[C@H]1Cc2c([nH]c3ccccc23)[C@H](c2cnn(C3CCOCC3)c2)N1C(=O)CCl` [Compound 158]: the IC50 is 591 nM.

For the molecule `C[C@H]1Cc2c([nH]c3ccccc23)[C@@H](c2cnn(C3CCOCC3)c2)N1C(=O)CCl` [Compound 159], the IC50 amounted to 4600 nM.

On to `C[C@H]1Cc2c([nH]c3ccccc23)[C@H](c2ccc(N3CCOCC3)nc2)N1C(=O)CCl` [Compound 220], for which the IC50 was determined as 98 nM.

As for `Cc1ccc(S(=O)(=O)OCC(=O)N2[C@@H](c3ccc(N4CCOCC4)cc3)c3[nH]c4ccccc4c3C[C@@H]2C)cc1` [Compound 223], the IC50 turned out to be 274 nM.

Regarding `C#CC(=O)N1[C@@H](c2ccc(N3CCOCC3)cc2)c2[nH]c3ccccc3c2C[C@@H]1C` [Compound 231], the IC50 is 270 nM.

As a reminder, the IC50 is the point on the concentration scale where inhibition reaches its midpoint.
